The values below come from ChEMBL document CHEMBL3507680, “University of Dundee, Gates Library screen for HepG2 cell viability”.

This data set is described as follows: Human HepG2 cell viability assay in 384 well format. Set-up: dose 125 nL, time 70.5 hour; cytotoxicity at 70.5 h: concentration not given beside the values. Particulars: HepG2 cells, read-out: Inhibition. The format is toxicity, cell-based.
`CC(CN1CCCC1=O)NC(=O)c1cc(-c2cccc(Cl)c2)no1` (centres undefined): the cytotoxicity at 70.5 h was -18.5%. In the case of `Cc1ccc(C(=O)N2CCSCC2)cc1NC(=O)NCC1CCC1` it was -7.96%; in that of `Cc1n[nH]c(C2CN(C(=O)c3ccc(Cl)o3)CCO2)n1` (centres undefined), -11.1%.

For `Cc1n[nH]c(C2CN(C(=O)c3ccon3)CCO2)n1` (centres undefined), the cytotoxicity at 70.5 h was -10.2%. In the case of `CC1CN(C(=O)Nc2ccc(Cl)c(C(=O)NC3CC3)c2)CC(C)(C)O1` (centres undefined) it was -7.92%. Under `N#Cc1cccc(CNc2cc(CO)ccc2Cl)c1` stands -15.1%; under `O=C(c1cccnc1O)N(Cc1cccs1)CC1CCCO1` (centres undefined), -11.9%; under `CN(C)C(=O)Cc1nc(CN2CCCC2Cn2cccn2)cs1` (centres undefined), -6.16%. Turning to `CC(C)Cc1noc(CN2CCCN(C(=O)c3ccccc3Cl)CC2)n1`, the cytotoxicity at 70.5 h was determined as 4.22%.

Turning to `CN(Cc1nnc(C2CC2)n1C)C1CCN(Cc2ccccc2)C1` (centres undefined), the cytotoxicity at 70.5 h worked out at 17.5%. Consider `Cc1cc(N2CCN(C(=O)c3cc(Cl)c[nH]3)CC2)nc(C(C)C)n1`, for which the cytotoxicity at 70.5 h was -7.83%. Under `Cc1cc(F)ccc1S(=O)(=O)N(C)CC(N)=O` stands -6.18%. As for `Cc1ccsc1C(=O)Nc1cnn(CC(=O)NC2CCCC2)c1`, the cytotoxicity at 70.5 h turned out to be 23.1%. In the case of `COC(=O)c1ccc(S(=O)(=O)N(C)CC(N)=O)c(Cl)c1` it was -3.22%; in that of `Cc1cc(C(=O)Nc2cnn(CC(=O)NC3CCCC3)c2)c(C)s1`, -6.94%; in that of `Cc1noc(C)c1CNC(=O)N1CCC(CN2CCC(C)CC2)CC1`, -2.8%. Under `Cc1cc(N2CCN(C(=O)c3cc(Cl)c[nH]3)CC2)nc(C)n1` stands -4.7%; under `Cc1cccc(N2CCN(C(=O)CN3CCC(C(N)=O)CC3)CC2)c1`, -2.32%; under `CCN(c1ccc(C(=O)Nc2c(C)nn(C(C)C)c2C)cc1)C(C)C`, -7.4%. In the case of `CCOc1cc(C)nc(N2CCN(C(=O)c3cc(Cl)c[nH]3)CC2)n1` it was -8.74%; in that of `NC(=O)NC(=O)CCN(Cc1ccccc1)CC1CCOCC1`, -2.94%.

In the case of `Cc1noc(C)c1CNC(=O)N1CCC(NS(C)(=O)=O)CC1`, the cytotoxicity at 70.5 h was -3.15%. In the case of `Cc1ccc(C(=O)Nc2cnn(CC(=O)NC3CCCC3)c2)c(=O)[nH]1` it was -3.7%. In the case of `Cc1ccc(OCC(=O)NCc2ccco2)nc1` it was -2.92%. Under `CCN(CC)c1ccc(NS(=O)(=O)c2cnn(C(C)C)c2)cn1` stands -6.47%. Turning to `Cc1ccc(OCC(=O)NCC(F)(F)F)nc1`, the cytotoxicity at 70.5 h was -4.18%. On to `COCCCN1CCC(NC(=O)C2CC2)CC1`, for which the cytotoxicity at 70.5 h was -4.57%. Under `CC(C)(C)c1cnc(CNCC2CCCN2c2cccnn2)o1` (centres undefined) stands 18.8%; under `CN(Cc1nnc(C2CC2)n1C)C1CCN(CCS(C)(=O)=O)C1` (centres undefined), -6.94%. In the case of `CCN(CC)C(=O)CN(C)CCn1nc2ccccn2c1=O` it was -4.24%; in that of `CC(=O)N1CCCN(CCn2nc3ccccn3c2=O)CC1`, -0.882%. In the case of `N#Cc1ncn(CCC(=O)Nc2ccc(F)c(F)c2)n1` it was -9.3%; in that of `CCC(=O)Nc1ccc(C(C)NC(=O)COC)cc1` (centres undefined), -9.08%; in that of `O=C(NCCCN1CCOCC1)c1cc(-c2ccccc2)[nH]n1`, -1.59%. In the case of `CC(=O)N(c1ccc(C)cc1)c1nc(CN2CCCC(C)C2)cs1` (centres undefined), the cytotoxicity at 70.5 h is 12.3%. In the case of `O=C(CCc1ccccn1)N1CCSC2(CCCCC2)C1` it was 3.22%; in that of `CC(C)=CCN1CCN(C(C)c2cccnc2)CC1` (centres undefined), -1.42%; in that of `Cc1ccc(CNC(=O)CN(C)CC2CCN(CCO)CC2)s1`, 2.24%. For `CC(c1cccnc1)N1CCN(CCCC#N)CC1` (centres undefined), the cytotoxicity at 70.5 h stood at 15%. Under `COc1cccc(SCC(=O)N2CCC(N3CCCC3=O)CC2)c1` stands -6.36%; under `CCN(Cc1ccoc1)C(C(N)=O)c1ccc(C#N)cc1` (centres undefined), -1.21%. `COc1ncccc1C(=O)N1CCCC1c1c(C)n[nH]c1C` (centres undefined): the cytotoxicity at 70.5 h turned out to be 37.5%.

Regarding `C1CCC(NCC2(N3CCOCC3)CCSC2)C1` (centres undefined), the cytotoxicity at 70.5 h came out at 14.2%. In the case of `CC(=O)c1ccc(S(=O)(=O)N2CCCC2CN2CCCC2)cc1` (centres undefined) it was -8.94%; in that of `CS(=O)(=O)c1nnc(NC(=O)CCc2cc(F)ccc2F)[nH]1`, -14.9%. On to `CC(=O)N(C)c1nc(CN2CCN(c3nccs3)CC2)cs1`, for which the cytotoxicity at 70.5 h was -5.68%.

`Cc1nnc(N2CCN(C(=O)NC3CC3)CC2)c(C(N)=O)c1C`: the cytotoxicity at 70.5 h is -15.7%. Under `Cc1ccsc1CNC(=O)Nc1ccn(CCN2CCOCC2)n1` stands 14.8%; under `O=C1CCc2cc(S(=O)(=O)NC(=O)c3ccc4c(c3)COC4)ccc2N1`, -12.1%. `CSc1ccc(NC(=O)Cc2cccc(O)c2)nc1`: the cytotoxicity at 70.5 h was -20.9%. Under `CN(C(=O)c1ccco1)C1CCC(NC(=O)OC(C)(C)C)CC1` (centres undefined) stands -6.4%; under `CN(C(=O)c1ccc[nH]1)C1CCC(NC(=O)OC(C)(C)C)CC1` (centres undefined), -17.5%. In the case of `COCc1ccc(C(=O)NS(=O)(=O)c2ccc3c(c2)CCC(=O)N3)cc1` it was 17.1%.

Take `CC(=O)N1CCc2ccc(S(=O)(=O)N3CCCCC3C)cc21` (centres undefined): the cytotoxicity at 70.5 h came to 0.13%. In the case of `CN(Cc1ccc([S+](C)[O-])cc1)c1ccccn1` (centres undefined) it was -10.9%; in that of `O=C(Nc1cc(CSCCO)ccn1)c1ccc(Cl)o1`, -10.5%; in that of `Cc1ccsc1CNC(=O)CC1CN(C(=O)OC(C)(C)C)C1`, -9.31%. Under `CCNC(=O)CN1CCSC2(CCCCC2)C1` stands -11.1%; under `CNS(=O)(=O)CCCN1CCCCCC1c1ccc(C)o1` (centres undefined), -11%; under `Cc1cscc1C(=O)Nc1cc(CSCCO)ccn1`, -3.95%. In the case of `Cc1cccc2nc(CSCc3nnnn3C(C)C)cn12`, the cytotoxicity at 70.5 h was -14.3%. Under `COCCN(Cc1ccco1)Cc1nc(-c2ccccc2)no1` stands 19.2%; under `Cc1nc(-c2ccccc2C)n(CC(=O)NC(C)C2CC2)n1` (centres undefined), -5.7%.

Take `Cc1nc(C)n(CC2CCCN2c2ncnc3c2CCC3)n1` (centres undefined): the cytotoxicity at 70.5 h was found to be 15.2%. Under `CCCC(C#N)NC(=O)Cc1csc(CC)n1` (centres undefined) stands -0.509%. Under `COCCSc1ccc(C(C)NC(=O)Nc2cn[nH]c2)cc1` (centres undefined) stands -6.86%. Under `Cc1nc(-c2ccccc2)n(CC(=O)NC(C2CC2)C2CC2)n1` stands -4.87%; under `Cc1ccsc1CNc1ccc(C(=O)N2CCNC(=O)C2)cn1`, -2.58%. `Cc1noc(C)c1CN(C)Cc1nc(N)c2ccccc2n1`: the cytotoxicity at 70.5 h was determined as 13.8%. Under `CC(C)Oc1ccc(-c2csc(Cn3ccc(=O)[nH]c3=O)n2)cc1` stands -0.0528%; under `O=C(Nc1ccccc1)NC1CCN(C2CCOC2)CC1` (centres undefined), 5.7%. `Cc1cccc(NC(=O)NC2CCN(C3CCOC3)CC2)c1` (centres undefined): the cytotoxicity at 70.5 h turned out to be 3.03%.

Consider `O=C(NCc1ccccn1)Nc1ccc2[nH]nnc2c1`, for which the cytotoxicity at 70.5 h was -4.24%.

In the case of `Cn1cnnc1-c1cncc(NCc2ccccc2Br)c1`, the cytotoxicity at 70.5 h came to 13.6%.
